Results: patent publication US20220023289A1, “Application Of Pyrroloquinoline Quinone In Preparation Of Medicament Used For Preventing And Treating Acute Altitude Sickness And Acute Altitude Hypoxia Injury” (priority 2018, published 2022)

Columns and labels:
[1] = tested on: rats exposed to acute altitude hypoxia; experiment: Blood glucose in rats exposed to acute altitude hypoxia (6000 m, 8 h, after 7 days intragastric); format: in vivo, Wistar rat; settings: for Blood sugar: 0.11 g/kg
Protocol: (§2) Select healthy Wistar rats weight 160-200 g, half female and half male. After feeding for 3 days, these Wistar rats are randomly divided into ten groups according to their body weight, each group has 16±2 rats. The groups are divided as follows: five groups of the hypoxic exposure drug test group, respectively, are given 0.91 mg/kg, 1.83 mg/kg, 3.66 mg/kg, 7.31 mg/kg, and 14.63 mg/kg drugs. […] After continuous intragastric administration for 7 days, the animals in the hypoxic exposure group are simultaneously put into the decompression and hypoxia compound experimental chamber, the hatch is closed, and the pressure is reduced at a speed of 10 m/s. After being raised to an altitude of 6000 m and maintained for 8 hours, the speed in 10 m/s drops is reduced to normal altitude, open the hatch, and then take out the animal, collect blood samples (after standing for 1 hour, the supernatant is centrifuged and stored at −20° C.), and liver tissue samples. Detection indicator includes body weight, serum blood glucose, ATP, lactic acid, endothelin, nitric oxide, SOD, CO, MDA related to oxidative stress, and total protein, albumin, triglycerides, total cholesterol, high-density lipoprotein cholesterol, low-density lipoprotein cholesterol, glutamic pyruvic transaminase, total bilirubin, gluamic oxalacetic transaminase, serum urea nitrogen, creatinine, uric acid, lactate dehydrogenase, creatine kinase, α-hydroxybutyrate dehydrogenase; liver ATP, hepatic glycogen. Except that the formal oxygen control animal group is not put into the decompression and hypoxia compound experimental chamber, other experimental conditions and detection indicators are the same.
(§3) Measure blood glucose, total protein, albumin, triglycerides, total cholesterol, high-density lipoprotein cholesterol, low-density lipoprotein cholesterol, glutamic-pyruvic transaminase, total bilirubin, glutamic oxalacetic transaminase, serum urea nitrogen, creatinine, uric acid, lactate dehydrogenase, creatine kinase, α-hydroxybutyrate dehydrogenase, blood homocysteine by using an automatic blood biochemical analyzer.

[2] = tested on: rats exposed to acute altitude hypoxia; experiment: Lipid metabolism in rats exposed to acute altitude hypoxia; format: in vivo, Wistar rat
Protocol: as §2, §3

[3] = tested on: rats exposed to acute altitude hypoxia; experiment: Endothelial function (serum endothelin-1, nitric oxide) in rats exposed to acute altitude hypoxia; format: in vivo, Wistar rat; settings: for Endothelin-1 / Nitric oxide: 0.11 g/kg
From the text: This method uses nitrate reductase specificity reduce NO^3− to NO^2−, and then determine the level of its concentration by displaying shades of color. Operate according to the kit instructions, measure the absorbance of each tube at a wavelength of 550 nm, and then calculate the content of nitric oxide of the sample to be tested according to the formula. To the coated microwells pre-coated with rat endothelin (endothelin-1) capture antibody, add in sequence specimens, standards, and HRP-labeled detection antibody, and then incubate and wash thoroughly. Use a substrate TMB for color development. TMB is converted into blue under the catalysis of peroxidase and converted into the final yellow color under the action of acid. The color intensity is positively correlated with the rat endothelin (endothelin-1) in the sample.

[4] = tested on: rats with acute altitude hypoxia injury; experiment: Serum energy metabolism indexes (ATP, lactic acid) in rats with acute altitude hypoxia injury; format: in vivo, Wistar rat; settings: for serum Lactic acid: 0.11 g/kg
Protocol: (§1) Determination of adenosine triphosphate (ATP): Perform enzyme-linked immunosorbent assay by double-antibody one-step sandwich method. To the coated microwells pre-coated with rat adenosine triphosphate (ATP) capture antibody, add in sequence the specimens, standard, and HRP-labeled detection antibody, and then incubate and wash thoroughly. Use a substrate TMB for color development, TMB is converted into blue under the catalysis of peroxidase and converted into the final yellow color under the action of acid. The color intensity is positively correlated with the rat adenosine triphosphate (ATP) in the sample. […] Determination of lactic acid (LC): Perform enzyme-linked immunosorbent assay by double-antibody one-step sandwich method. To the coated microwells pre-coated with rat lactic acid (LC) capture antibody, add in sequence the specimens, standard, and HRP-labeled detection antibody, and then incubate and wash thoroughly. Use a substrate TMB for color development. TMB is converted into blue under the catalysis of peroxidase and converted into the final yellow color under the action of acid. The color intensity is positively correlated with the rat lactic acid (LC) in the sample.

[5] = tested on: rats exposed to acute altitude hypoxia; experiment: Liver ATP and glycogen in rats exposed to acute altitude hypoxia; format: in vivo, Wistar rat
Protocol: as §1, with “liver glycogen (GC):” for “lactic acid (LC):”, “liver glycogen (GC)” for “lactic acid (LC)”, “development,” for “development.”

[6] = Body weight of mice before closed hypoxia tolerance test; settings: 0.16 g/kg
[7] = female rats, hypoxia, 0.11 g/kg
[8] = female rats, normoxia, 0.11 g/kg

CC(=O)Nc1nnc(S(N)(=O)=O)s1 [Acetazolamide, reference compound]
effect on blood glucose ([1]; acute hypoxia exposed female rats): no significant effects
Blood sugar ([1]; female rats, hypoxia): 7.63 ± 0.76 mmol/L
effect on blood glucose ([1]; female rats, normoxia): lowering the blood glucose
Blood sugar ([1]; female rats, normoxia): 7.18 ± 0.39 mmol/L
effect on blood glucose level ([1]; male rats): no significant effects
Blood sugar ([1]; male rats, hypoxia): 8.87 ± 1.24 mmol/L
High density lipoprotein cholesterol [2, 7]: 1.55 ± 0.19 mmol/L
Low density lipoprotein cholesterol [2, 7]: 0.17 ± 0.04 mmol/L
Total cholesterol [2, 7]: 2.02 ± 0.20 mmol/L
effect on low-density lipoprotein cholesterol ([2]; female rats, normoxia): no significant effects
effect on total cholesterol and high-density lipoprotein cholesterol ([2]; female rats, normoxia): can increase
High density lipoprotein cholesterol [2, 8]: 1.67 ± 0.07 mmol/L
Low density lipoprotein cholesterol [2, 8]: 0.16 ± 0.02 mmol/L
Total cholesterol [2, 8]: 2.14 ± 0.10 mmol/L
effect on total cholesterol, low-density and high-density lipoprotein cholesterol ([2]; hypoxia exposed female rats): increasing
effect on total, high-density and low-density lipoprotein cholesterol ([2]; male rats): no significant effect
effect on triglycerides ([2]; male rats exposed to hypoxia): is not found
High density lipoprotein cholesterol ([2]; male rats, hypoxia, 0.11 g/kg): 1.39 ± 0.14 mmol/L
Low density lipoprotein cholesterol ([2]; male rats, hypoxia, 0.11 g/kg): 0.21 ± 0.05 mmol/L
Total cholesterol ([2]; male rats, hypoxia, 0.11 g/kg): 1.88 ± 0.21 mmol/L
Triglycerides ([2]; male rats, hypoxia, 0.11 g/kg): 1.05 ± 0.49 mmol/L
effect on serum endothelin-1 and nitric oxide ([3]; female rats after acute hypoxia exposure): no significant effects
Endothelin-1 ([3]; female rats, hypoxia): 55.66 ± 6.39 ng/mL
Nitric oxide ([3]; female rats, hypoxia): 4.96 ± 3.13 µmol/L
effect on nitric oxide content ([3]; female rats, normoxia): no significant effects
effect on serum endothelin-1 content ([3]; female rats, normoxia): can reduce
Endothelin-1 ([3]; female rats, normoxia): 36.18 ± 2.31 ng/mL
Nitric oxide ([3]; female rats, normoxia): 4.08 ± 0.88 µmol/L
effect on serum endothelin-1 and nitric oxide ([3]; hypoxia exposed male rats): slight reduction
Endothelin-1 ([3]; male rats, hypoxia): 42.41 ± 0.7 ng/mL
Nitric oxide ([3]; male rats, hypoxia): 3.52 ± 1.25 µmol/L
serum Lactic acid ([4]; female rats, hypoxia): 132.16 ± 10.42 ng/L
effect on serum ATP and lactic acid content ([4]; female rats, last sentence of b195 (normoxia per Table 37)): reducing
serum Lactic acid ([4]; female rats, normoxia): 100.54 ± 7.13 ng/L
effect on serum ATP and lactic acid content ([4]; hypoxia exposed female rats): no significant effects
effect on serum ATP ([4]; male rats): no significant effects
effect on serum lactic acid content ([4]; male rats): reducing
serum Lactic acid ([4]; male rats, hypoxia): 161.46 ± 6.94 ng/L
effect on liver ATP and glycogen content ([5]; female rats, after hypoxia exposure and normoxia): no significant effects
liver Glycogen [5, 7]: 3.71 ± 0.27 ng/mL
liver ATP [5, 8]: 1.39 ± 0.54 µg/mL
liver Glycogen [5, 8]: 2.75 ± 1.13 ng/mL
effect on liver ATP and glycogen content ([5]; male rats): no significant effects
liver Glycogen ([5]; male rats, hypoxia, 0.11 g/kg): 2.14 ± 0.21 ng/mL
weight 1 day ([6]; female mice): 20.27 ± 0.90 g
weight 3 days ([6]; female mice): 20.88 ± 1.50 g
weight 1 day ([6]; male mice): 15.41 ± 1.08 g
weight 3 days ([6]; male mice): 15.88 ± 1.24 g
